Experimental data published in US5232684A, “Labelled resiniferatoxin, compositions thereof, and methods for using the same” (priority 1990, dated 1993).
“Also recorded” adds a separate entry of the source. Like-named read-outs stand apart in the source and are kept apart here.

Tests used:
[1] = biological target: T1, capsaicin receptor (pig DRG membranes) (Sus scrofa, UniProt F1RLJ0); test: biochemical; type: binding; conditions: for inhibition of specific [^3H]RTX binding: Table 1, 200 nM or 2 μM; for inhibition of [^3H]RTX binding: 30 uM; for inhibition of / competition for [^3H]RTX binding (words): biologically effective concentrations, Table 1, 10 μM, 10 µM
T1 construct: tissue Mt; Airy Locker Co., Mt; Airy, MD; host or cells: pig dorsal root ganglia
T1 sequence (F1RLJ0 1-841): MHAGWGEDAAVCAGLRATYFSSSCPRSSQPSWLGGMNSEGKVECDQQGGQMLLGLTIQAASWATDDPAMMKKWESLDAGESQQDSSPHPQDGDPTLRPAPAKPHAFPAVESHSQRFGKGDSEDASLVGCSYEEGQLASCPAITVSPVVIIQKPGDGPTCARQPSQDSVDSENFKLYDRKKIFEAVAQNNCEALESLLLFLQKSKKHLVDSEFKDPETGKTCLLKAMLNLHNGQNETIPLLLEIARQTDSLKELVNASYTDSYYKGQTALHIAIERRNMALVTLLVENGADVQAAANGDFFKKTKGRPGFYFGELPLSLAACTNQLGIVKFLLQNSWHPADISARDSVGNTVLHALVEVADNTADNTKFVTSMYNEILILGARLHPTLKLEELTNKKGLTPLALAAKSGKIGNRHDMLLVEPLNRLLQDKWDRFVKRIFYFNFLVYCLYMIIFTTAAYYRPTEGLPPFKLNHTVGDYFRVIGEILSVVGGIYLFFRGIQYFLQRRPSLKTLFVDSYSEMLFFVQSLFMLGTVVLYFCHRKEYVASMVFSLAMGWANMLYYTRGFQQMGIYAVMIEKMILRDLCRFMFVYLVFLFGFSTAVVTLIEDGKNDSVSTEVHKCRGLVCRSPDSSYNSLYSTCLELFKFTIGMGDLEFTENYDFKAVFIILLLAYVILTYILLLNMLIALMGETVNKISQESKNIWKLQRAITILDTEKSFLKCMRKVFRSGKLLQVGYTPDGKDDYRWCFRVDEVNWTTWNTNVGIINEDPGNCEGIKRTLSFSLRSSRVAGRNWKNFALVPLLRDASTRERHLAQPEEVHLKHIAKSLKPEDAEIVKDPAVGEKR
Method: (§1) Membrane preparations are obtained from the DRG and Gasser ganglia of female Sprague-Dawley rats (250-300 g); animals are sacrificed by decapitation under ether anesthesia, the ganglia removed and collected into ice-cold disrupting buffer (5 mM KCl, 5.8 mM NaCl, 2 mM MgCl2, 12 mM glucose, 137 mM sucrose, 10 mM HEPES, 5 mM DTT, 2 mM EGTA, pH 7.4). After homogenization with the aid of a Polytron tissue homogenizer, samples are filtered over surgical gauze and then washed twice with the same buffer and stored at -70° C. Particulate fractions are obtained from other rat neural tissues (cerebellum, spinal cord, preoptic region, striatum, substantia nigra) and from DRG of pigs (Mt. Airy Locker Co., Mt. Airy, MD), sheep, cows (kindly provided by Dr. Solomon, USDA, Beltsville, MD), and chickens (Truslow Farms, Chesterton, MD) by a similar procedure.
Subcellular fractions are prepared by a modification of the method of Bastiaensen et al. (Bastiaensen, E., Miserez, B. and De Potter, W., Subcellular fractionation of bovine ganglion stellatum: co-storage of noradrenaline, Met-enkephalin and neuropeptide Y in large `dense-cored` vesicles, Brain Res., 442 (1988) 124-130. ) Briefly: DRG are dissected free from capsule, cut into small pieces with scissors, and then homogenized with a teflon pestle (20 strokes) in ice-cold 0.25 M sucrose/ 20 mM Tris-Cl (pH 7.4) buffer. The homogenate is filtered over surgical gauze; it is then centrifuged for 10 min at 2000 gmax, giving a pellet P1, and again at 10 000 gmax for 15 min giving a pellet P2. The P1 and P2 pellets are saved as nuclear and mitochondrial fractions for binding studies. The resulting supernatant is further centrifuged at 50 000 gmax for 60 min, and then the pellet is harvested as the plasma-membrane enriched microsomal fraction.
(§2) The binding assays are carried out in a volume of 250 ul, containing assay buffer (same as the disrupting buffer but omitting DTT and EGTA and including 0.75 mM CaCl2), 26-30 ug of membrane protein and 0.25 mg/ml bovine serum albumin. […] Tubes are kept on ice while the additions are made. The assay mixture is incubated for 10 min at 37° C.; it is then cooled on ice. 150 ul of the mixture is pipetted onto Whatman GF/C or GF/F glass fiber filters presoaked with 10 mg/ml bovine serum albumin in 20 mM Tris-Cl (pH 7.4) and filtered immediately. An aliquot of 50 ul of the mixture is removed to determine total radioactivity. The filters are washed with 100 ml of ice-cold 20 mM Tris-Cl, pH 7 4, containing 0.1 mg/ml bovine serum albumin, and the bound radioactivity is determined by scintillation counting. Non-specific binding is determined in the presence of 100-1000 nM non-radioactive RTX.
(§3) Binding data from saturation experiments using increasing concentrations of hot ligand are analyzed using the collection of computer programs described by McPherson (McPherson, G.A., Analysis of radioligand binding experiments: a collection of computer programs for the IBM PC, J.Pharmacol.Methods, 14 (1985) 213-228).
(§4) Scatchard and Hill transformations are performed by the Equilibrium Binding Data Analysis program referred to as EBDA. Data are further analyzed by the curvilinear regression program LIGAND (Munson, R.J. and Rodbard, D., LIGAND: a versatile computerized approach for characterization of ligand-binding systems, Anal.Biochem, 107 (1980) 220-239).
RTX binding is also analyzed in the presence of a fixed, low (60 pM or 300 pM) concentration of [^3 H]RTX and increasing concentrations of non-radioactive RTX or other ligand.

[2] = biological target: T2, capsaicin receptor (rat DRG membranes) (Rattus norvegicus, UniProt O35433); test: biochemical; type: binding; conditions: for activity at 0.2 µM: 10 min, read-out: % of specific [^3H]RTX binding measured in the absence of the tested compound ± SEM
T2 construct: membrane preparations from dorsal root ganglia (DRG) of female Sprague-Dawley rats; from tissue; host or cells: dorsal root ganglia of female Sprague-Dawley rats
T2 sequence (O35433 whole entry): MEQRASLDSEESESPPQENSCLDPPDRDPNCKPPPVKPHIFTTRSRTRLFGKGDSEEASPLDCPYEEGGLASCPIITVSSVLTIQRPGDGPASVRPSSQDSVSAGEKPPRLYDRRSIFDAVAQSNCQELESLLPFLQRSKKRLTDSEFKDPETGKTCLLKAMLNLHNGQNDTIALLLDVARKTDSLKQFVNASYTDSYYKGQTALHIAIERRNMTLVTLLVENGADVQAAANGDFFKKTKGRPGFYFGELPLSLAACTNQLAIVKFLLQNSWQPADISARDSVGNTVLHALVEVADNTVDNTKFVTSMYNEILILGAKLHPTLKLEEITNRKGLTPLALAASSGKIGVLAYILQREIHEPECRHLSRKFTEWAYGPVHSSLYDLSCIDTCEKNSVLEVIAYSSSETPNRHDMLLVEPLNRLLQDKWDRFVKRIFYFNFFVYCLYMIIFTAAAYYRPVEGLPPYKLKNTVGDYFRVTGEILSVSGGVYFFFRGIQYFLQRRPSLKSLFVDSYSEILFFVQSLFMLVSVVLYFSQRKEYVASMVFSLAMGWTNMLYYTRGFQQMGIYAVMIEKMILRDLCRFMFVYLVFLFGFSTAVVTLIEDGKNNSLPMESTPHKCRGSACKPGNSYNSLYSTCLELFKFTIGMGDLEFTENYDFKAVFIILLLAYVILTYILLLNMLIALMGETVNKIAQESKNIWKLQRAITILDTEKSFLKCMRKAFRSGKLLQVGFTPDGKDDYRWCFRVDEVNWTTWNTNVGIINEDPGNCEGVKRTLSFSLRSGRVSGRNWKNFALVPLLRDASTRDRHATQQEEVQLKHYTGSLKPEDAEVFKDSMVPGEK
Method: as §1, §2, §3, §4
(§5) RTX binding is also analyzed in the presence of a fixed, low (60 pM or 300 pM) concentration of [^3 H]RTX and increasing concentrations of non-radioactive RTX or other ligand. […] The Ki value for RTX is calculated from the relationship Ki =ID50 -L; the Ki values for other ligands are calculated from the general form of the equation (Cheng, Y.C. and Prusoff, W.H., Relation between the inhibition constant (Ki) and the concentration of inhibitor which causes 50 per cent inhibition (I50) of an enzymatic reaction, Biochem. Pharmacol., 22 (1973) 3099-3108) Ki =IC50 /(1+L/Kd) where L=concentration of labelled ligand and Kd =dissociation constant of radioactive ligand as determined in the saturation experiments using variable concentrations of hot ligand. Comparison of the quality of fit using single and multiple site competition models is performed by the LIGAND program.
[^3 H]RTX binding is examined using membrane preparations from dorsal root ganglia (DRG) of female Sprague-Dawley rats.

[3] = RTX versus capsaicin, cited from earlier work
[4] = system: protein kinase C; test: [^3H]phorbol 12,13-dibutyrate binding, rat DRG membranes
Source text: The side chain at C20 is essential for the capsaicin-like 25 activity of RTX (Szallasi, A., Sharkey, N.A. and Blumberg, P.M., Structure-activity analysis of resiniferatoxin analogs, Phytotherapy Res., 6: 253-257, 1990).

[5] = RTX versus capsaicin; cited from earlier work
[6] = system: rats; conditions: 300 ug/kg RTX s.c.; cited from earlier work
[7] = system: mitochondrial NADH-Coenzyme Q oxidoreductase; conditions: high capsaicin concentrations; cited from earlier work
[8] = biological target: T3, capsaicin receptor (rat Gasser ganglia) (Rattus norvegicus, UniProt O35433); test: biochemical; type: binding; conditions: for activity at 30 µM: read-out: % of specific [^3H]RTX binding measured in the absence of the tested compound ± SEM
T3 construct: from tissue; host or cells: Gasser ganglia of female Sprague-Dawley rats
T3 sequence (O35433 whole entry): as above
Method: as §1, §2, §3, §4, §5
Gasser ganglia represents the […] homolog of the dorsal root ganglia.

[9] = system: capsaicin desensitization of sensory fibers; conditions: cited from earlier work
[10] = biological target: protein kinase C; test: [^3H]PDBu binding, pig DRG membranes; conditions: read-out: Kd for [^3H]PDBu binding to membrane preparations
[11] = 10 min, pig DRG, 30 μM, read-out: % of specific [^3H]RTX binding measured in the absence of the tested compound ± SEM

N[C@@H](Cc1ccc(O)c(O)c1)C(=O)O [L-DOPA]
competition for [^3H]RTX binding sites ([1]; pig DRG, 100 uM): does not compete

CCCC(=O)O[C@@H]1[C@@H](C)[C@@]2(O)[C@@H](C=C(CO)C[C@]3(O)C(=O)C(C)=C[C@@H]23)[C@@H]2C(C)(C)[C@]12OC(=O)CCC [PDBu, phorbol 12,13-dibutyrate]
activity at 0.2 µM ([1]; 10 min, read-out: % of specific [^3H]RTX binding measured in the absence of the tested compound ± SEM): 100 ± 2% | inhibition of specific [^3H]RTX binding [1]: inhibited neither | activity at 0.2 µM [2]: 106 ± 9%

C=C(C)[C@]12C[C@@H](C)[C@@]34O[C@](Cc5ccccc5)(O[C@@H]1[C@@H]3C=C(CO)C[C@]1(O)C(=O)C(C)=C[C@@H]41)O2 [ROA, resiniferonol 9,13,14-orthophenylacetate]
activity at 2 µM ([1]; 10 min, pig DRG, 2 μM, read-out: % of specific [^3H]RTX binding measured in the absence of the tested compound ± SEM): 105 ± 6% | inhibition of specific [^3H]RTX binding [1]: inhibited neither | activity at 0.2 µM ([2]; rat DRG, 200 nM): 106%

C=C(C)[C@]12C[C@@H](C)[C@@]34O[C@](Cc5ccccc5)(O[C@@H]1[C@@H]3C=C(COC(=O)Cc1ccc(O)c(OC)c1)C[C@]1(O)C(=O)C(C)=C[C@@H]41)O2 [RTX, resiniferatoxin]
fold more potent than capsaicin / difference in potencies for induction of hypothermia or neurogenic inflammation [3]: 10^3 -10^4 fold | fold more potent than capsaicin / difference in potencies for induction of hypothermia or neurogenic inflammation ([3]; listed as resiniferatoxin): up to 10^4 fold | loss of specific [^3H]RTX binding after addition of excess non-radioactive RTX ([1]; pig DRG membranes, by 10 min at 37° C.): complete loss of specific binding | Ki ([1]; pig DRG, mean±SEM, 4 determinations, read-out: Ki, inhibition of [^3H]RTX binding): 2.4 ± 0.3 nM | Ki ([1]; pig DRG, one site model, read-out: Ki (LIGAND analysis)): 2.2 nM | inhibition of specific [^3H]phorbol 12,13-dibutyrate binding to protein kinase C ([4]; rat DRG preparations): only at uM concentrations | potency for induction of pain relative to capsaicin [5]: comparable in potency | time to expression of desensitization [6]: 1 to 4 h | Ki ([2]; rat DRG, 60 pM [^3H]RTX, 30 pM to 3 nM non-radioactive RTX, mean±SEM, 3 determinations, read-out: Ki, competition of [^3H]RTX binding): 0.11 ± 0.04 nM

COc1cc(CNC(=O)CCCC/C=C/C(C)C)ccc1O [capsaicin]
inhibition of NADH-Coenzyme Q oxidoreductase [7]: inhibited at high capsaicin concentrations | Ki [1]: 14000 ± 2000 nM | % of specific [^3H]RTX binding measured in the absence of the tested compound ± SEM ([1]; pig DRG, 30 μM, 10 min): 28 ± 4% | % of specific [^3H]RTX binding measured in the absence of the tested compound ± SEM ([8]; gasser ganglia membranes, 30 µM): 30 ± 11

COc1cc(CNC(=O)CCCCCCC(C)C)ccc1O [dihydrocapsaicin]
inhibition of [^3H]RTX binding ([1]; pig DRG): inhibits to a similar degree as does capsaicin | % of specific [^3H]RTX binding measured in the absence of the tested compound ± SEM ([1]; pig DRG, 30 μM, 10 min): 33 ± 5% | % of specific [^3H]RTX binding measured in the absence of the tested compound ± SEM ([8]; rat Gasser ggl, 30 μM): 22%

NCCc1ccc(O)c(O)c1 [dopamine]
competition for [^3H]RTX binding sites [1]: does not compete

CNC[C@H](O)c1ccc(O)c(O)c1 [epinephrine]
competition for [^3H]RTX binding sites [1]: does not compete

NC[C@H](O)c1ccc(O)c(O)c1 [norepinephrine]
competition for [^3H]RTX binding sites ([1]; pig DRG, 100 uM): does not compete

O=C(/C=C/C=C/c1ccc2c(c1)OCO2)N1CCCCC1 [piperine]
activity at 30 µM [1, 11]: 109 ± 2% | inhibition of [^3H]RTX binding ([1]; pig DRG): does not inhibit or does so more weakly | activity at 30 µM ([8]; rat Gasser ggl, 30 μM): 118%

N.N.N.N.N.N.N.N.N.N.N.N.N.N.[Cl-].[Cl-].[Cl-].[Cl-].[Cl-].[Cl-].[O-2].[O-2].[Ru+3].[Ru+3].[Ru+4] [ruthenium red]
inhibition of / competition for [^3H]RTX binding (words) [1]: fails to compete | inhibition of / competition for [^3H]RTX binding (words) ([1]; listed as Ruthenium red): fails to inhibit | % of specific [^3H]RTX binding measured in the absence of the tested compound ± SEM ([1]; pig DRG (by column position), 10 μM, n = 2): 109% | effect on (capsaicin) desensitization [9]: block capsaicin desensitization; also recorded: blocks the desensitization

COc1cc(CCC(C)=O)ccc1O [zingerone]
activity at 30 µM [1, 11]: 92 ± 7% | inhibition of [^3H]RTX binding ([1]; pig DRG): does not inhibit or does so more weakly | activity at 30 µM ([8]; rat Gasser ggl, 30 μM): 111%

[^3 H]phorbol 12,13-dibutyrate [[^3 H]PDBu]
Kd [10]: 11.5 nM | Kd ([4]; rat DRG, read-out: Kd for [^3H]PDBu binding to membrane preparations): 8.5 nM
